Like-named read-outs stand apart in the source and are kept apart here.
Legend:
[1] = system: IL-23 stimulated Kit225 T cells (STAT-dependent luciferase reporter); assay: Kit225 T cell assay, IL-23-stimulated STAT-dependent luciferase reporter; type: cell-based, human
Method: (§1) Kit225 T cells with a stably-integrated STAT-dependent luciferase reporter were plated in RPMI (Gibco) containing 10% heat-inactivated FBS (Gibco) and 100 U/mL PenStrep (Gibco). The cells were then stimulated with either 20 ng/mL human recombinant IL-23 or 200 U/mL human recombinant IFNα (PBL InterferonSource) for 5-6 hours. Luciferase expression was measured using the STEADY-GLO® Luciferase Assay System (Promega) according to the manufacturer's instructions. Inhibition data were calculated by comparison to no inhibitor control wells for 0% inhibition and non-stimulated control wells for 100% inhibition.

[2] = system: IFNα stimulated Kit225 T cells (STAT-dependent luciferase reporter); assay: Kit225 T cell assay, IFNα-stimulated STAT-dependent luciferase reporter; type: cell-based, human
Method: as §1

[3] = 20 ng/mL human recombinant IL-23, 5-6 hours, read-out: IL-23 Kit225 Reporter (IC50)
[4] = 200 U/mL human recombinant IFNα, 5-6 hours, read-out: IFNα Kit225 Reporter (IC50)
[5] = KIT225, 20 ng/mL human recombinant IL-23, 5-6 hours, read-out: IL-23 Kit225 Reporter (IC50)
[6] = KIT225, 200 U/mL human recombinant IFNα, 5-6 hours, read-out: IFNα Kit225 Reporter (IC50)
[7] = Homo sapiens, KIT225, read-out: IL-23 Kit225 Reporter (IC50, nM)
[8] = Homo sapiens, KIT225, read-out: IFNα Kit225 Reporter (IC50, nM)

SMILES | IC50 [1, 3] [nM] | IC50 [2, 4] [nM] | other results
CNC(=O)c1nnc(NC(=O)C2CC2)cc1Nc1cccc(-c2ncc(F)cn2)c1OC [Example 116] | 20 | 30 | 
CNC(=O)c1nnc(Nc2ccccn2)cc1Nc1cccc(-c2ncc(C)s2)c1OC [Example 117] | 80 | 30 | 
CNC(=O)c1nnc(Nc2ccncn2)cc1Nc1cccc(-c2ncccn2)c1OC [Example 118] | 30 | 20 | 
CNC(=O)c1nnc(Nc2cc(C)ncn2)cc1Nc1cccc(-c2ncccn2)c1OC [Example 119] | 10 | 7.37 | 
CNC(=O)c1nnc(Nc2cc(C(C)(C)O)ccn2)cc1Nc1cccc(-c2ncn(C)n2)c1OC [Example 120] | 60 | 10 | 
CNC(=O)c1nnc(Nc2cc(C)nc(C)n2)cc1Nc1cccc(-c2ncccn2)c1OC [Example 121] | 2.64 | 2.33 | 
CNC(=O)c1nnc(Nc2ccc(C)nn2)cc1Nc1cccc(-c2ncccn2)c1OC [Example 122] | 30 | 3.2 | 
CNC(=O)c1nnc(Nc2cccnn2)cc1Nc1cccc(-c2ncccn2)c1OC [Example 123] | 5.9 | 6.81 | 
CNC(=O)c1nnc(Nc2cc(C)c(F)cn2)cc1Nc1cccc(-c2ncc(C)s2)c1OC [Example 124] | 700 | 490 | 
CNC(=O)c1nnc(NC(=O)C2CC2)cc1Nc1cccc(-c2cscn2)c1OC [Example 126] | 40 | 30 | 
CCOc1ccnc(Nc2cc(Nc3cccc(-c4ncn(C)n4)c3OC)c(C(=O)NC)nn2)c1 [Example 127] | 30 | 20 | 
CCc1ccnc(Nc2cc(Nc3cccc(-c4ncn(C)n4)c3OC)c(C(=O)NC)nn2)c1 [Example 128] | 6.08 | 3.17 | 
CNC(=O)c1nnc(Nc2cc(C)c(F)cn2)cc1Nc1cccc(-c2cscn2)c1OC [Example 129] | 20 | 10 | 
CNC(=O)c1nnc(Nc2cc(C)nc(C)n2)cc1Nc1cccc(-c2cscn2)c1OC [Example 130] | 9.7 | 10 | 
CNC(=O)c1nnc(Nc2cc(C)n(C)n2)cc1Nc1cccc(-c2cscn2)c1OC [Example 131] | 20 | 20 | 
CNC(=O)c1nnc(Nc2ccccn2)cc1Nc1cccc(-c2cscn2)c1OC [Example 132] | 20 | 20 | 
CNC(=O)c1nnc(Nc2cc(OC)ccn2)cc1Nc1cccc(-c2ncn(C)n2)c1OC [Example 133] | 8.03 | 3.81 | 
CNC(=O)c1nnc(Nc2cc(COC)ccn2)cc1Nc1cccc(-c2ncn(C)n2)c1OC [Example 135] | 3.83 | 1.4 | 
CNC(=O)c1nnc(NC(=O)C2CC2)cc1Nc1cccc(-c2cnn(C)n2)c1OC [Example 136] | 20 | 6.04 | 
CNC(=O)c1nnc(Nc2cc(C)nc(C)n2)cc1Nc1cccc(-c2cnn(C)n2)c1OC [Example 137] | 10 | 6.92 | 

SMILES | IC50 [1, 3] [nM] | IC50 [2, 4] [nM] | other results
CNC(=O)c1nnc(NC(=O)C2CC2)cc1Nc1cccc(-c2cn(C)nn2)c1OC [Example 138] | 30 | 30 | 
C#Cc1cccc(Nc2cc(NC(=O)C3CC3)nnc2C(=O)NC)c1OC [Example 139] | 210 | 150 | 
CNC(=O)c1nnc(NC(=O)C2CC2)cc1Nc1cccc(-c2n[nH]c(C)n2)c1OC [Example 141] | 40 | 20 | 
CNC(=O)c1nnc(NC(=O)C2CC2)cc1Nc1cccc(-c2nnnn2C)c1OC [Example 143] | 40 | 140 | 
CNC(=O)c1nnc(Nc2cc(C)nc(C)n2)cc1Nc1cccc(-c2nnn(C)n2)c1OC [Example 144] | 10 | 3.15 | 
CNC(=O)c1nnc(Nc2ccccn2)cc1Nc1cccc(-c2nnnn2C)c1OC [Example 145] | 10 | 8.44 | 
CNC(=O)c1nnc(Nc2cc(C)n(C)n2)cc1Nc1cccc(-c2n[nH]c(C)n2)c1OC [Example 148] | 20 | 10 | 
CNC(=O)c1nnc(NC(=O)C2CC2)cc1Nc1cccc(-c2nnc(C)o2)c1OC [Example 149] | 170 | 50 | 
CNC(=O)c1nnc(Nc2cc(C)c(F)cn2)cc1Nc1cccc(-c2nnc(C)o2)c1OC [Example 150] | 20 | 10 | 
CNC(=O)c1nnc(Nc2cc(C)n(C)n2)cc1Nc1cccc(-c2nnc(C)o2)c1OC [Example 152] | 130 | 30 | 
CNC(=O)c1nnc(Nc2cc(C)nc(C)n2)cc1Nc1cccc(-c2nnc(C)o2)c1OC [Example 153] | 150 | 30 | 
CNC(=O)c1nnc(Nc2cc(C(C)O)ccn2)cc1Nc1cccc(-c2cscn2)c1OC (centres unmarked) [Example 157] | 230 | 150 | 
CNC(=O)c1nnc(Nc2ccnc(C)n2)cc1Nc1cccc(-c2ncccn2)c1OC [Example 158] | 10 | 20 | 
CNC(=O)c1nnc(NC(=O)C2CC2)cc1Nc1cccc(-c2cn(C)cn2)c1OC [Example 159] | 110 | 80 | 
CNC(=O)c1nnc(Nc2cc(C)n(C)n2)cc1Nc1cccc(-c2cnc(C)s2)c1OC [Example 161] | 210 | 210 | 
[2H]C([2H])([2H])NC(=O)c1nnc(NC(=O)C2CC2)cc1Nc1cccc(-c2nc(C)no2)c1OC [Example 162, 6-(cyclopropanecarboxamido)-4-((2-methoxy-3-(3-methyl-1,2,4-oxadiazol-5-yl)phenyl)amino)-N-trideuteromethylpyridazine-3-carboxamide] |  |  | IC50 [1, 5]: 120 nM; IC50 [2, 6]: 60 nM
[2H]C([2H])([2H])NC(=O)c1nnc(Nc2ccccn2)cc1Nc1cccc(-c2nc(C)no2)c1OC [Example 163, 4-((2-methoxy-3-(3-methyl-1,2,4-oxadiazol-5-yl)phenyl)amino)-N-trideutero-methyl-6-(pyridin-2-ylamino)pyridazine-3-carboxamide] |  |  | IC50 [1, 5]: 40 nM; IC50 [2, 6]: 30 nM
[2H]C([2H])([2H])NC(=O)c1nnc(Nc2ccccn2)cc1Nc1cccc(C(=O)NCCOC)c1OC [Example 164] |  |  | IC50 [1, 5]: 300 nM; IC50 [2, 6]: 170 nM
CNC(=O)c1nnc(Nc2ccccn2)cc1Nc1cccc(C(=O)NC2CC2)c1OC [Example 165] | 340 | 230 | 
CNC(=O)c1nnc(Nc2ccccn2)cc1Nc1cccc(C(=O)NCC(C)(C)O)c1OC [Example 166] | 270 | 210 | 

SMILES | IC50 [1, 3] [nM] | IC50 [2, 4] [nM] | other results
CNC(=O)c1nnc(Nc2ccccn2)cc1Nc1cccc(C(=O)NCCC(C)(C)O)c1OC [Example 168] | 100 | 80 | 
CNC(=O)c1cccc(Nc2cc(Nc3ccccn3)nnc2C(=O)NC)c1OC [Example 169] | 40 | 30 | 
CNC(=O)c1nnc(Nc2ccccn2)cc1Nc1cccc(C(=O)NCCCO)c1OC [Example 170] | 230 | 390 | 
CNC(=O)c1nnc(Nc2ccccn2)cc1Nc1cccc(C(=O)NCC(F)(F)F)c1OC [Example 171] | 50 | 130 | 
[2H]C([2H])([2H])NC(=O)c1nnc(Nc2ccccn2)cc1Nc1cccc(-c2nnc[nH]2)c1OC [Example 172] |  |  | IC50 [1, 5]: 5.45 nM; IC50 [2, 6]: 6.19 nM
[2H]C([2H])([2H])NC(=O)c1nnc(NC(=O)C2CC2)cc1Nc1cccc(-c2nc[nH]n2)c1OC [Example 173] |  |  | IC50 [1, 7]: 120 nM; IC50 [2, 8]: 20 nM
[2H]C([2H])([2H])NC(=O)c1nnc(NC(=O)C2CC2)cc1Nc1cccc(-c2ncn(CC)n2)c1OC [Example 174] |  |  | IC50 [1, 7]: 20 nM; IC50 [2, 8]: 6.97 nM
CNC(=O)c1nnc(NC(=O)C2CC2)cc1Nc1cccc(-c2ncn(CCF)n2)c1OC [Example 175] | 20 | 10 | 
CCn1cnc(-c2cccc(Nc3cc(Nc4ccccn4)nnc3C(=O)NC)c2OC)n1 [Example 177] | 1.52 | 1.63 | 
CNC(=O)c1nnc(Nc2ccccn2)cc1Nc1cccc(-c2ncnn2C)c1OC [Example 178] | 30 | 10 | 
CNC(=O)c1nnc(NC(=O)C2CC2)cc1Nc1cccc(-c2ncnn2C)c1OC [Example 179] | 450 | 140 | 
CNC(=O)c1nnc(Nc2cc(C)c(F)cn2)cc1Nc1cccc(-c2ncnn2C)c1OC [Example 180] | 60 | 20 | 
[2H]C([2H])([2H])NC(=O)c1nnc(NC(=O)C2CC2)cc1Nc1cccc(-c2nc(C)n(C)n2)c1OC [Example 181] |  |  | IC50 [1, 5]: 40 nM; IC50 [2, 6]: 20 nM
[2H]C([2H])([2H])NC(=O)c1nnc(NC(=O)C2CC2)cc1Nc1cccc(-c2nc(C)nn2C)c1OC [Example 182] |  |  | IC50 [1, 5]: 190 nM; IC50 [2, 6]: 80 nM
CNC(=O)c1nnc(Nc2cc(C)nc(C)n2)cc1Nc1cccc(-c2nc(C)nn2C)c1OC [Example 184] | 6.41 | 7.2 | 
[2H]C([2H])([2H])NC(=O)c1nnc(NC(=O)C2CC2)cc1Nc1cccc(-c2cn[nH]c2)c1OC [Example 185] |  |  | IC50 [1, 5]: 280 nM; IC50 [2, 6]: 120 nM
CNC(=O)c1nnc(NC(=O)C2CC2)cc1Nc1cccc(-c2cnn(CC(C)(C)O)c2)c1OC [Example 189] | 150 | 30 | 
CNC(=O)c1nnc(NC(=O)C2CC2)cc1Nc1cccc(-c2cn(C(C)C)nn2)c1OC [Example 190] | 20 | 20 | 
